Results published in US20200181121A1, “Cocrystal of Telmisartan and Hydrochlorothiazide” (SHANGHAI INSTITUTE OF MATERIA MEDICA, CHINESE ACADEMY OF …, priority 2017, published 2020).

Test: Accelerated stability test (ICH Q1E), change of the content
Assay type: physicochemical
Settings: 40°C±2°C, RH 75±5%, polyethylene-sealed bag
Procedure: According to the description in “Stability Data Evaluation” of ICH guidelines Q1E, a comparison of accelerated stability test (at 40° C.±2° C., RH 75±5%) of cocrystal of hydrochlorothiazide and telmisartan obtained in Example 1 with that of telmisartan or hydrochlorothiazide itself was conducted respectively. The cocrystal of telmisartan and hydrochlorothiazide, telmisartan, and hydrochlorothiazide were double packaged using the polyethylene-sealed bag respectively, stood for 1, 2 or 3 months under the accelerated stability test conditions (at 40° C.±2° C., RH 75±5%). Then the samples were taken and measured for the change of the content.

| content of hydrochlorothiazide (0 month) [%] | content of hydrochlorothiazide (1 month) [%] | content of hydrochlorothiazide (2 months) [%] | content of hydrochlorothiazide (3 months) [%] | content of telmisartan (0 month) [%] | content of telmisartan (1 month) [%] | content of telmisartan (2 months) [%] | content of telmisartan (3 months) [%] | SMILES |
| --- | --- | --- | --- | --- | --- | --- | --- | --- |
| 100 | 97.37 | 96.34 | 95.28 | – | – | – | – | NS(=O)(=O)c1cc2c(cc1Cl)NCNS2(=O)=O [Hydrochlorothiazide, 6-chloro-3,4-dihydro-2H-1,2,4-benzothiadiazine-7-sulfonamido-1,1-dioxide] |
| – | – | – | – | 100 | 97.28 | 94.47 | 94.20 | CCCc1nc2c(C)cc(-c3nc4ccccc4n3C)cc2n1Cc1ccc(-c2ccccc2C(=O)O)cc1 [Telmisartan, 4′-[[2-propyl-4-methyl-6(1-methyl-benzimidazol-2-yl)-benzimidazol-1-yl]methyl]-2-biphenylcarboxylic acid] |
